# Measured values: patent US20090253634A1, “Methods and Compositions for the Treatment of Gastrointestinal Disorders” (MICROBIA, INC., priority 2005, published 2009)
# Ends that are not written are not given here.
# Assays:
# gastrointestinal transit = assay: murine gastrointestinal transit (GIT) assay, acute and chronic dosing; type: in vivo, mice; conditions: for gastrointestinal transit rate: oral, SEQ ID NO:4 and Zelnorm 0.1 mg/kg, FIG. 3a, 3b; for intestinal transit rate, dose dependence: recombinantly synthesized peptides, FIG. 4a
# Method: In order to determine whether the peptides increase the rate of gastrointestinal transit, the peptides and controls were tested using a murine gastrointestinal transit (GIT) assay (Moon et al. Infection and Immunity 25:127, 1979). In this assay, charcoal, which can be readily visualized in the gastrointestinal tract is administered to mice after the administration of a test compound. The distance traveled by the charcoal is measured and expressed as a percentage of the total length of the […].
# Mice were fasted with free access to water for 12 to 16 hours before the treatment with peptide or control buffer. The peptides were orally administered at 1 μg/kg-1 mg/kg of peptide in buffer ([…] pH 7.5) 7 minutes before being given an oral dose of 5% Activated Carbon (Aldrich 242276-250G). Control mice were administered buffer only before being given a dose of Activated Carbon. After 15 minutes, the mice were sacrificed and their intestines from the stomach to the cecum were dissected. The total length of the intestine as well as the distance traveled from the stomach to the charcoal front was measured for each animal and the results are expressed as the percent of the total length of the intestine traveled by the charcoal front. All results are reported as the average of 10 mice±standard deviation. A comparison of the distance traveled by the charcoal between the mice treated with peptide versus the mice treated with vehicle alone was performed using a Student's t test and a statistically significant difference was considered for P<0.05. P-values are calculated using a two-sided T-Test assuming unequal variances.
# The identical experiment was performed to determine if SEQ ID NO:3 is effective in a chronic dosing treatment regimen. Briefly, 8 week old CD1 female mice are dosed orally once a day for 5 days with either SEQ ID NO:3 (0.06 mg/kg or 0.25 mg/kg in 20 mM Tris pH 7.5) or vehicle alone (20 mM Tris pH 7.5). On the 5th day, a GIT assay is performed identical to that above except 200 μl of a 10% charcoal solution is administered. […] The results are shown side by side with acute dosing (1 day).
# intestinal secretion = assay: suckling mouse model of intestinal secretion (SuMi assay); type: in vivo, suckling mice
# Method: In this model a test compound is administered to suckling mice that are between 7 and 9 days old. After the mice are sacrificed, the gastrointestinal tract from the stomach to the cecum is dissected (“guts”). The remains (“carcass”) as well as the guts are weighed and the ratio of guts to carcass weight is calculated. If the ratio is above 0.09, one can conclude that the test compound increases intestinal secretion. […] The effect of Zelnorm® was also studied.
# intestinal GC-C receptor = molecular target: T1, intestinal GC-C receptor (Homo sapiens, UniProt P25092); assay: GC-C receptor activity assay (cyclic GMP) in T84 cells; type: cell-based; conditions: chemically synthesized peptides, cyclic GMP by EIA
# T1 construct: monolayers of T84 cells in 24-well plates; host or cells: T84 human colon carcinoma cells
# T1 sequence (P25092 24-1073): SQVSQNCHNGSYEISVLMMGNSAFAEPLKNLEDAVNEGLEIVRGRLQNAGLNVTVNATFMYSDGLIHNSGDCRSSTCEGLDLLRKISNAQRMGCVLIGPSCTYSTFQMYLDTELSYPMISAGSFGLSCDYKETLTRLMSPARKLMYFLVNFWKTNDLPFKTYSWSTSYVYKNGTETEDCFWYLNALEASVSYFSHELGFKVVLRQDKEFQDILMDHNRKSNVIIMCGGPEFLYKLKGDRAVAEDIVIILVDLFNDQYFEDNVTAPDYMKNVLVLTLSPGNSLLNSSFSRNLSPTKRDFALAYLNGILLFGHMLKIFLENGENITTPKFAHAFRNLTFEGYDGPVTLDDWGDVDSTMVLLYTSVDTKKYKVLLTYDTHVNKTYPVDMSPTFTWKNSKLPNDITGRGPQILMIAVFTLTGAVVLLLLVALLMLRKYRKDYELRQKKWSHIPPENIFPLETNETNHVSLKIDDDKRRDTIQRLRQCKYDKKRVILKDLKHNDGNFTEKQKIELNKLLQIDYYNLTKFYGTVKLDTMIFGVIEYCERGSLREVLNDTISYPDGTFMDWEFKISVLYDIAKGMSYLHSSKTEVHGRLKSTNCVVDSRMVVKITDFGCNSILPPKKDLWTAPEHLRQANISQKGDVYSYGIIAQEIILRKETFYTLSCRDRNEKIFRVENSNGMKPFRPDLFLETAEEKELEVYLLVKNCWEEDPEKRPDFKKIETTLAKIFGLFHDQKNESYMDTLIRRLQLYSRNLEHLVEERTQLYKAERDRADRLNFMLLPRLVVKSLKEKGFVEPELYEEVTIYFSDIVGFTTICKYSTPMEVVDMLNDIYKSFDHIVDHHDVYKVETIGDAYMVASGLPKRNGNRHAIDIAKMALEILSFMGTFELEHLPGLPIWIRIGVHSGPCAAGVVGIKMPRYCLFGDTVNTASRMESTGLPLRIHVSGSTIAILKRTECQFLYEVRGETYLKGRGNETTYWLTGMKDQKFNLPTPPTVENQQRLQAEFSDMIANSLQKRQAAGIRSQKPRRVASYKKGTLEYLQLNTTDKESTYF
# Method: The ability of SEQ ID NO:5, SEQ ID NO:4, SEQ ID NO:3, and SEQ ID NO:6 to activate the intestinal GC-C receptor was assessed in an assay employing the T84 human colon carcinoma cell line (American Type Culture Collection (Bethesda, Md.)). For the assays cells were grown to confluency in 24-well culture plates with a 1:1 mixture of Ham's F12 medium and Dulbecco's modified Eagle's medium (DMEM), supplemented with 5% fetal calf serum and were used at between passages 54 and 60.
# Briefly, monolayers of T84 cells in 24-well plates were washed twice with 1 ml/well DMEM, then incubated at 37° C. for 10 min with 0.45 ml DMEM containing 1 mM isobutylmethylxanthine (IBMX), a cyclic nucleotide phosphodiesterase inhibitor, Test peptides (50 μl) were then added and incubated for 30 minutes at 37° C. The media was aspirated and the reaction was then terminated by the addition of ice cold 0.5 ml of 0.1N HCl. The samples were held on ice for 20 minutes and then evaporated to dryness using a heat gun or vacuum centrifugation.
# [1] = molecular target: T2, GC-C receptors found in rat intestinal mucosa (Rattus norvegicus, UniProt P23897); conditions: same assay, observed by Giannella et al.; cited from earlier work
# T2 construct: Epithelial cells from the small intestine of rats were obtained; from tissue; host or cells: rat small-intestinal mucosa / epithelial cell suspension
# T2 sequence (P23897 23-1072): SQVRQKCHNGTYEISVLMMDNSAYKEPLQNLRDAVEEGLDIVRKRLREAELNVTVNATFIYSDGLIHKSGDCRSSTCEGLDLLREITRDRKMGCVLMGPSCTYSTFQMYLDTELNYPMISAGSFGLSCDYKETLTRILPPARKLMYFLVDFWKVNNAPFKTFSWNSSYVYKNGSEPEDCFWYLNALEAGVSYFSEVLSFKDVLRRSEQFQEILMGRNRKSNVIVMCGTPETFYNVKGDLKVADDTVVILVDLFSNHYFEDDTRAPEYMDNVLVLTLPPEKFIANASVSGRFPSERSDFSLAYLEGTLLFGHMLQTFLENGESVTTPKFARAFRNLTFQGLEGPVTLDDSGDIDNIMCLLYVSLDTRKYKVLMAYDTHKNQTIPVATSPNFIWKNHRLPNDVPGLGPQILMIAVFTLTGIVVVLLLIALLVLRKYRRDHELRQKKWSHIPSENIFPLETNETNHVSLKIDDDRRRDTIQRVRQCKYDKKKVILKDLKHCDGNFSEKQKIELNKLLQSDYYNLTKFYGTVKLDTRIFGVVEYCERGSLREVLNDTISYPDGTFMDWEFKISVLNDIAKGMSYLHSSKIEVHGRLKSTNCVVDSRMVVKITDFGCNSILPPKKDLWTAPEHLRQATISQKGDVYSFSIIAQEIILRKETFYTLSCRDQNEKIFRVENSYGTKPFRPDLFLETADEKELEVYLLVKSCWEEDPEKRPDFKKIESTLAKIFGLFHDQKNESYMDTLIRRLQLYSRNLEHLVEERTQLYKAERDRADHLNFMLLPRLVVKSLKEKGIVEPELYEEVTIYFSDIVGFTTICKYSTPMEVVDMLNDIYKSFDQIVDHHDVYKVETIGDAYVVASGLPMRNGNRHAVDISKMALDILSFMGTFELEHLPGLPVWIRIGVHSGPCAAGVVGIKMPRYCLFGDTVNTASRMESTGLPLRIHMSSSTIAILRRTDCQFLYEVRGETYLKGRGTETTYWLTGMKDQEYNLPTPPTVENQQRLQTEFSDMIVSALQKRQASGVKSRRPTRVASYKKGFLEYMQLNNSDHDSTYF
# PBQ-induced writhing = assay: phenylbenzoquinone (PBQ)-induced writhing model
# [2] = recombinant peptides, dose response, FIG. 6a
Compound,gastrointestinal transit rate (gastrointestinal transit; acute),"effect in mouse gastrointestinal motility assay upon chronic dosing (gastrointestinal transit; oral once a day for 5 days, SEQ ID NO:3 0.06 or 0.25 mg/kg, FIG. 4c)",intestinal secretion (guts to carcass weight ratio) (intestinal secretion; 0.2 mg/kg),activity in GC-C receptor activity assay (intestinal GC-C receptor),"intestinal transit rates versus Tris buffer or equivalent dose of Zelnorm (gastrointestinal transit; acute, chemically synthesized peptides, FIG. 4b)","intestinal transit rate, dose dependence (gastrointestinal transit; acute)","intestinal secretion (guts to carcass weight ratio) (intestinal secretion; dose response, wild-type ST purchased from TDT, FIG. 5a, 5b)",intestinal secretion (guts to carcass weight ratio) (intestinal secretion; [2]),Kd [1],"writhings versus vehicle control (PBQ-induced writhing; 1 mg/kg dose, oral)",antinociceptive effect compared with indomethacin (PBQ-induced writhing; PBQ writhing assay)
"[H]/N=C(/NCCCCC)N/N=C/c1c[nH]c2ccc(OC)cc12 [Zelnorm®, tegaserod]",increase gastrointestinal transit rate,effective,does not increase intestinal secretion,,,,,,,,
NSSNYCCELCCNPACTGCY [SEQ ID NO:4],increase gastrointestinal transit rate,,,activity comparable to SEQ ID NO:4,increase intestinal transit rates more than either Tris buffer alone or an equivalent dose of Zelnorm®,increases with an increasing dosage,increase intestinal secretion,increase intestinal secretion,~0.013 µM,,
NSSNYCCEYCCNPACTGCY (cysteine pairing not given here) [SEQ ID NO:5],,,,,,increases with an increasing dosage,,increase intestinal secretion,,Significant reductions in writhings,antinociceptive effects in this visceral pain model comparable to the intermediate doses of indomethacin
